Calls of active or inactive are those of the source. The rule behind the calls is not given here.
Tests used:
[1] = test system: Human immunodeficiency virus 1; assay: Antiviral activity against HIV1 infected in human U373-MAGI cells assessed as increase in mutant frequency incubated for 2 hrs prior to viral infection followed by compound washout after 24 hrs measured 72 hrs post-infection by flow cytometry; format: functional, organism-based
[2] = Cytotoxicity against human U373-MAGI cells by CellTitre-Glo assay; format: cell-based
[3] = Selectivity index, ratio of CC50 for human U373-MAGI cells to EC50 for HIV1 infected in human U373-MAGI cells; format: toxicity, cell-based; conditions: read-out: Ratio CC50/EC50
[4] = test system: Human immunodeficiency virus 1; assay: Antiviral activity against HIV1 infected in human U373-MAGI cells incubated for 2 hrs prior to viral infection followed by compound washout after 24 hrs measured 72 hrs post-infection by flow cytometry; format: functional, organism-based; conditions: Human immunodeficiency virus 1, U373-MAGI
[5] = test system: Human immunodeficiency virus 1; assay: Antiviral activity against HIV1 infected in human U373-MAGI cells assessed as C to T mutation at 20 nM (reference value: 13%); format: functional
[6] = test system: Human immunodeficiency virus 1; assay: Antiviral activity against HIV1 infected in human U373-MAGI cells assessed as T to C mutation at 20 nM (reference value: 18%); format: functional
[7] = test system: Human immunodeficiency virus 1; assay: Antiviral activity against HIV1 infected in human U373-MAGI cells assessed as G to A mutation at 20 nM (reference value: 27%); format: functional
[8] = test system: Human immunodeficiency virus 1; assay: Antiviral activity against HIV1 infected in human U373-MAGI cells assessed as A to G mutation at 20 nM (reference value: 22%); format: functional
[9] = test system: Human immunodeficiency virus 1; assay: Antiviral activity against HIV1 infected in human U373-MAGI cells assessed as induction of mutations at 20 nM (reference value: 18%); format: functional
[10] = test system: Human immunodeficiency virus 1; assay: Antiviral activity against HIV1 infected in human U373-MAGI cells assessed as C to T mutation at 50 uM (reference value: 13%); format: functional
[11] = test system: Human immunodeficiency virus 1; assay: Antiviral activity against HIV1 infected in human U373-MAGI cells assessed as A to G mutation at 50 uM (reference value: 22%); format: functional
[12] = test system: Human immunodeficiency virus 1; assay: Antiviral activity against HIV1 infected in human U373-MAGI cells assessed as T to C mutation at 50 uM (reference value: 18%); format: functional
[13] = test system: Human immunodeficiency virus 1; assay: Antiviral activity against HIV1 infected in human U373-MAGI cells assessed as G to A mutation at 50 uM (reference value: 27%); format: functional
[14] = test system: Human immunodeficiency virus 1; assay: Antiviral activity against HIV1 infected in human U373-MAGI cells assessed as induction of mutations at 50 uM (reference value: 18%); format: functional
[15] = test system: Human immunodeficiency virus 1; assay: Potentiation of resveratrol-induced antiviral activity against HIV1 infected in human U373-MAGI cells G to A mutation at 200 uM (reference value: 27%); format: functional
[16] = test system: Human immunodeficiency virus 1; assay: Inhibition of gemcitabine-induced antiviral activity against HIV1 infected in human U373-MAGI cells at 100 to 200 uM incubated for 2 hrs prior to viral infection followed by compound washout after 24 hrs measured 72 hrs post-infection by flow cytometry; format: functional, organism-based
[17] = test system: Human immunodeficiency virus 1; assay: Potentiation of gemcitabine-induced antiviral activity against HIV1 infected in human U373-MAGI cells assessed as T to C mutation at 5 uM (reference value: 18%); format: functional
[18] = test system: Human immunodeficiency virus 1; assay: Potentiation of gemcitabine-induced antiviral activity against HIV1 infected in human U373-MAGI cells at 5 to 50 uM incubated for 2 hrs prior to viral infection followed by compound washout after 24 hrs measured 72 hrs post-infection by flow cytometry; format: functional, organism-based
[19] = test system: Human immunodeficiency virus 1; assay: Potentiation of resveratrol-induced antiviral activity against HIV1 infected in human U373-MAGI cells assessed as increase in mutant frequency at 5 to 200 uM incubated for 2 hrs prior to viral infection followed by compound washout after 24 hrs measured 72 hrs post-infection by flow cytometry relative to control; format: functional
[20] = test system: Human immunodeficiency virus 1; assay: Potentiation of resveratrol-induced antiviral activity against HIV1 infected in human U373-MAGI cells assessed as C to T mutation at 200 uM (reference value: 13%); format: functional
[21] = test system: Human immunodeficiency virus 1; assay: Potentiation of gemcitabine-induced antiviral activity against HIV1 infected in human U373-MAGI cells assessed as G to C mutation at 5 uM; format: functional
[22] = test system: Human immunodeficiency virus 1; assay: Potentiation of deferoxamine-induced antiviral activity against HIV1 infected in human U373-MAGI cells at 200 uM incubated for 2 hrs prior to viral infection followed by compound washout after 24 hrs measured 72 hrs post-infection by flow cytometry; format: functional, organism-based; conditions: Human immunodeficiency virus 1, U373-MAGI
[23] = test system: Human immunodeficiency virus 1; assay: Antiviral activity against HIV1 infected in human U373-MAGI cells assessed as increase in mutant frequency at 5 to 200 uM incubated for 2 hrs prior to viral infection followed by compound washout after 24 hrs measured 72 hrs post-infection by flow cytometry; format: functional
[24] = test system: Human immunodeficiency virus 1; assay: Potentiation of gemcitabine-induced antiviral activity against HIV1 infected in human U373-MAGI cells assessed as C to T mutation at 5 uM (reference value: 13%); format: functional
[25] = Cytotoxicity against human U373-MAGI cells up to 200 uM by CellTitre-Glo assay; format: cell-based
[26] = test system: Human immunodeficiency virus 1; assay: Potentiation of resveratrol-induced antiviral activity against HIV1 infected in human U373-MAGI cells assessed as A to G mutation at 200 uM (reference value: 22%); format: functional
[27] = test system: Human immunodeficiency virus 1; assay: Potentiation of gemcitabine-induced antiviral activity against HIV1 infected in human U373-MAGI cells assessed as A to G mutation at 5 uM (reference value: 22%); format: functional
[28] = test system: Human immunodeficiency virus 1; assay: Potentiation of resveratrol-induced antiviral activity against HIV1 infected in human U373-MAGI cells assessed as T to C mutation at 200 uM (reference value: 18%); format: functional
[29] = test system: Human immunodeficiency virus 1; assay: Potentiation of gemcitabine-induced antiviral activity against HIV1 infected in human U373-MAGI cells assessed as induction of mutations at 5 uM (reference value: 18%); format: functional
[30] = test system: Human immunodeficiency virus 1; assay: Antiviral activity against HIV1 infected in human U373-MAGI cells assessed as T to C mutation at 200 uM (reference value: 18%); format: functional
[31] = test system: Human immunodeficiency virus 1; assay: Inhibition of gemcitabine-induced antiviral activity against HIV1 infected in human U373-MAGI cells assessed as increase in mutant frequency incubated for 2 hrs prior to viral infection followed by compound washout after 24 hrs measured 72 hrs post-infection by flow cytometry relative to gemcitabine; format: functional, organism-based
[32] = test system: Human immunodeficiency virus 1; assay: Potentiation of deferoxamine-induced antiviral activity against HIV1 infected in human U373-MAGI cells assessed as increase in mutant frequency at 5 to 200 uM incubated for 2 hrs prior to viral infection followed by compound washout after 24 hrs measured 72 hrs post-infection by flow cytometry relative to control; format: functional
[33] = test system: Human immunodeficiency virus 1; assay: Antiviral activity against HIV1 infected in human U373-MAGI cells assessed as C to T mutation at 200 uM (reference value: 13%); format: functional
[34] = test system: Human immunodeficiency virus 1; assay: Potentiation of deferoxamine-induced antiviral activity against HIV1 infected in human U373-MAGI cells incubated for 2 hrs prior to viral infection followed by compound washout after 24 hrs measured 72 hrs post-infection by flow cytometry; format: functional, organism-based
[35] = test system: Human immunodeficiency virus 1; assay: Antiviral activity against HIV1 infected in human U373-MAGI cells assessed as A to G mutation at 200 uM (reference value: 22%); format: functional
[36] = test system: Human immunodeficiency virus 1; assay: Potentiation of resveratrol-induced antiviral activity against HIV1 infected in human U373-MAGI cells assessed as G to C mutation at 200 uM; format: functional
[37] = test system: Human immunodeficiency virus 1; assay: Potentiation of gemcitabine-induced antiviral activity against HIV1 infected in human U373-MAGI cells assessed as induction of mutations at 200 uM (reference value: 18%); format: functional
[38] = test system: Human immunodeficiency virus 1; assay: Potentiation of gemcitabine-induced antiviral activity against HIV1 infected in human U373-MAGI cells G to A mutation at 5 uM (reference value: 27%); format: functional
[39] = test system: Human immunodeficiency virus 1; assay: Antiviral activity against HIV1 infected in human U373-MAGI cells assessed as G to A mutation at 200 uM (reference value: 27%); format: functional
[40] = test system: Human immunodeficiency virus 1; assay: Potentiation of resveratrol-induced antiviral activity against HIV1 infected in human U373-MAGI cells incubated for 2 hrs prior to viral infection followed by compound washout after 24 hrs measured 72 hrs post-infection by flow cytometry; format: functional, organism-based
[41] = test system: Human immunodeficiency virus 1; assay: Potentiation of resveratrol-induced antiviral activity against HIV1 infected in human U373-MAGI cells at 200 uM incubated for 2 hrs prior to viral infection followed by compound washout after 24 hrs measured 72 hrs post-infection by flow cytometry; format: functional, organism-based; conditions: Human immunodeficiency virus 1, U373-MAGI
[42] = test system: Human immunodeficiency virus 1; assay: Potentiation of gemcitabine-induced antiviral activity against HIV1 infected in human U373-MAGI cells assessed as increase in mutant frequency at 25 uM incubated for 2 hrs prior to viral infection followed by compound washout after 24 hrs measured 72 hrs post-infection by flow cytometry relative to control; format: functional
[43] = test system: Human immunodeficiency virus 1; assay: Antiviral activity against HIV1 infected in human U373-MAGI cells assessed as induction of mutations at 200 uM (reference value: 18%); format: functional
[44] = test system: Human immunodeficiency virus 1; assay: Antiviral activity against HIV1 infected in human U373-MAGI cells assessed as G to C mutation at 200 uM; format: functional
[45] = test system: Human immunodeficiency virus 1; assay: Potentiation of gemcitabine-induced antiviral activity against HIV1 infected in human U373-MAGI cells at 5 uM incubated for 2 hrs prior to viral infection followed by compound washout after 24 hrs measured 72 hrs post-infection by flow cytometry; format: functional, organism-based; conditions: Human immunodeficiency virus 1, U373-MAGI
[46] = test system: Human immunodeficiency virus 1; assay: Antiviral activity against HIV1 assessed as viral infection; format: functional, organism-based
[47] = test system: Human immunodeficiency virus 1; assay: Antiviral activity against HIV1 infected in human U373-MAGI cells at 5 to 200 uM incubated for 2 hrs prior to viral infection followed by compound washout after 24 hrs measured 72 hrs post-infection by flow cytometry; format: functional, organism-based

CC(=O)N(O)CCCCCNC(=O)CCC(=O)N(O)CCCCCNC(=O)CCC(=O)N(O)CCCCCN [DEFEROXAMINE]
Activity [1]: Dose-dependent effect
CC50 ([2]; u373-magi): > 400 µM
selectivity ratio [3]: > 1
EC50 [4]: 384 µM

Nc1ccn([C@@H]2O[C@H](CO)[C@@H](O)C2(F)F)c(=O)n1 [GEMCITABINE]
Activity [5]: 13%
Activity [1]: Dose-dependent effect
Activity [6]: 24%
CC50 ([2]; u373-magi): 62 µM
Activity [7]: 13%
Activity [8]: 24%
Activity [9]: 24%

Oc1ccc(/C=C/c2cc(O)cc(O)c2)cc1 [RESVERATROL]
Activity [1]: Dose-dependent effect
Activity [10]: 4%
Activity [11]: 38%
CC50 ([2]; U373-MAGI cells): > 400 µM
Activity [12]: 16%
Activity [13]: 18%
EC50 [4]: 99.6 µM
Activity [14]: 22%

NC1=NC(=O)N([C@H]2C[C@H](O)[C@@H](CO)O2)CN1 [KP-1212]
Activity [15]: 13%
inhibition [16]: Active
Activity [17]: 14%
Activity [18]: Active
fold change (FC) [19]: 6.2
Activity [1]: Dose-dependent effect
Activity [20]: 9%
Activity [21]: 11%
EC50 [22]: 248 µM
fold change (FC) [23]: 1.6
Activity [24]: 12%
Activity [25]: Non-toxic
Activity [26]: 13%
Activity [27]: 32%
Activity [28]: 10%
Activity [29]: 14%
Activity [30]: 8%
inhibition [31]: Active
fold change (FC) [32]: 4.7
Activity [33]: 10%
Activity [34]: Dose-dependent effect
Activity [35]: 18%
Activity [36]: 41%
Activity [37]: 14%
Activity [38]: 18%
Activity [39]: 24%
Activity [40]: Dose-dependent effect
EC50 [41]: 52.8 µM
fold change (FC) [42]: 4.8
Activity [43]: 16%
Activity [44]: 22%
EC50 [45]: 0.0216 µM
EC50 [46]: 0.01 µM
Activity [47]: Active

Nc1ncn([C@@H]2O[C@H](CO)[C@@H](O)[C@H]2O)c(=O)n1 [AZACITIDINE]
EC50 [46]: 53 µM

Source: ChEMBL document CHEMBL3085671, “5,6-Dihydro-5-aza-2'-deoxycytidine potentiates the anti-HIV-1 activity of ribonucleotide reductase inhibitors” (Bioorg Med Chem, 2013)
